US20240199623A1 (ILDONG PHARMACEUTICAL CO., LTD., priority 2020, published 2024)

The molecules below were run against human wild type-CFTR (Homo sapiens, UniProt P13569) (assay: Cell-based YFP assay). Details: CHO-K1 cells expressing human wild type-CFTR and YFP-H148Q/I152L; forskolin 20 μM = 100% activity; read-out: Cell-based YFP Assay (EC50) Concentration Range.
Parameters: expressed in transfected cells; host or cells: CHO-K1 (Chinese hamster ovary)
Summary of the method: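 CHO-K1 cells co-expressing human wild-type CFTR and YFP-H148Q/I152L halide sensor, grown 48 h at 37 °C, then in PBS. YFP quenching by I⁻ influx read at 37 °C after adding 140 mM I⁻ solution, sampled every 0.4 s for 14 s. Triplicates averaged; EC50 fitted.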

Chain of human wild type-CFTR (P13569 whole entry): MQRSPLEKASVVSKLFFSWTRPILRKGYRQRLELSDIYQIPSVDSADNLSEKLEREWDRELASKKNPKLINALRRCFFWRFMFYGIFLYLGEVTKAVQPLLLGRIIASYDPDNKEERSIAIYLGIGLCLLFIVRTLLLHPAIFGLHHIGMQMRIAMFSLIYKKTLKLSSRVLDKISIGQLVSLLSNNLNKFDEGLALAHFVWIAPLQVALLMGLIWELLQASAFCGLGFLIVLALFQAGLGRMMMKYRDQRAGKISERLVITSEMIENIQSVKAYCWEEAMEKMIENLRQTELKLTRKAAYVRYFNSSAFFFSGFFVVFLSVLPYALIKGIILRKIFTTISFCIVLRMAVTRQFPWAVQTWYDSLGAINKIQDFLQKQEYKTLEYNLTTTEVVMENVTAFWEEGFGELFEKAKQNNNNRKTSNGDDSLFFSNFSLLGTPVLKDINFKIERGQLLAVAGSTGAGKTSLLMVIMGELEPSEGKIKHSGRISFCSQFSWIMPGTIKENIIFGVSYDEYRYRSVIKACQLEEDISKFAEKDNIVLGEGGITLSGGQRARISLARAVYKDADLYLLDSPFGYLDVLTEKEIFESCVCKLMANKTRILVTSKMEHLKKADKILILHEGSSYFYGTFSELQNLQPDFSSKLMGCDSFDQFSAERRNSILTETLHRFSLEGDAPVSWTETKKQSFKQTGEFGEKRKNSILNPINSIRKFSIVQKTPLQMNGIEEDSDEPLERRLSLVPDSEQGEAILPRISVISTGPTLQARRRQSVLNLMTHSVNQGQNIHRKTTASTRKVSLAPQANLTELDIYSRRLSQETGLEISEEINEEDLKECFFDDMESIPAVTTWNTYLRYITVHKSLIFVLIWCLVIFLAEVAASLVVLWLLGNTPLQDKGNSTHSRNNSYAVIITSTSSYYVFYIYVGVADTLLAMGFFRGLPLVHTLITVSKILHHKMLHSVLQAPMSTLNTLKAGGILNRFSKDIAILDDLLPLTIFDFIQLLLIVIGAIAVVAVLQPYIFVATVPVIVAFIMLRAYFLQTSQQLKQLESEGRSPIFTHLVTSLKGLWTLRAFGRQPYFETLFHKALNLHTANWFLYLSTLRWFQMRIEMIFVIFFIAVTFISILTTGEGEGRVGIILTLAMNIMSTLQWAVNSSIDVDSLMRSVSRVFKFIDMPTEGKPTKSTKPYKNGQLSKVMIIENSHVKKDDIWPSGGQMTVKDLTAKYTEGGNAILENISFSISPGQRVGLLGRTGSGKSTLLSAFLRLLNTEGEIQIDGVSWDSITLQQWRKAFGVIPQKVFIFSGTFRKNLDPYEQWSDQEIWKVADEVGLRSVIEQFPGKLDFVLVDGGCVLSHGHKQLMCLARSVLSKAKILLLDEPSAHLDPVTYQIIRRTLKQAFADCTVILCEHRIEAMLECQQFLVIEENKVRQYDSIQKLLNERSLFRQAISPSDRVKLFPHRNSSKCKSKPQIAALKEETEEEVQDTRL

| EC50 [nM] | Structure (SMILES) |
| --- | --- |
| 200 to 2000 | CCOC(=O)[C@H]1CC[C@H](NC(=O)c2cc3nccc(-c4ccc(OC)c(OC)c4)n3n2)CC1 [Compound 330, ethyl (1R,4R)-4-(7-(3,4-dimethoxyphenyl)pyrazolo [1,5-a]pyrimidine-2-carboxamido)cyclohexane-1-carboxylate] |
| 200 to 2000 | CCCOC(=O)[C@H]1CC[C@H](NC(=O)c2cc3nccc(-c4ccc(OC)c(OC)c4)n3n2)CC1 [Compound 331, propyl (1R,4R)-4-(7-(3,4-dimethoxyphenyl)pyrazolo [1,5-a]pyrimidine-2-carboxamido)cyclohexane-1-carboxylate] |
| 200 to 2000 | CCCCOC(=O)[C@H]1CC[C@H](NC(=O)c2cc3nccc(-c4ccc(OC)c(OC)c4)n3n2)CC1 [Compound 332, butyl (1r,4r)-4-(7-(3,4-dimethoxyphenyl)pyrazolo [1,5-a]pyrimidine-2-carboxamido)cyclohexane-1-carboxylate] |
| ≥ 2000 | CCCCCCCCCCOC(=O)[C@H]1CC[C@H](NC(=O)c2cc3nccc(-c4ccc(OC)c(OC)c4)n3n2)CC1 [Compound 333, decyl (1r,4r)-4-(7-(3,4-dimethoxyphenyl)pyrazolo [1,5-a]pyrimidine-2-carboxamido)cyclohexane-1-carboxylate] |
| < 200 | CCOC(=O)c1ccc(NC(=O)c2cc3nccc(-c4ccc(OC)c(OC)c4)n3n2)cc1 [Compound 334, ethyl 4-(7-(3,4-dimethoxyphenyl)pyrazolo[1,5-a]pyrimidine-2-carboxamido)benzoate] |
| < 200 | CCCOC(=O)c1ccc(NC(=O)c2cc3nccc(-c4ccc(OC)c(OC)c4)n3n2)cc1 [Compound 335, propyl 4-(7-(3,4-dimethoxyphenyl)pyrazolo [1,5-a]pyrimidine-2-carboxamido)benzoate] |
| 200 to 2000 | CCCCOC(=O)c1ccc(NC(=O)c2cc3nccc(-c4ccc(OC)c(OC)c4)n3n2)cc1 [Compound 336, butyl 4-(7-(3,4-dimethoxyphenyl)pyrazolo[1,5-a]pyrimidine-2-carboxamido) benzoate] |
| ≥ 2000 | CCCCCCCCCCOC(=O)c1ccc(NC(=O)c2cc3nccc(-c4ccc(OC)c(OC)c4)n3n2)cc1 [Compound 337, decyl 4-(7-(3,4-dimethoxy-phenyl)pyrazolo[1,5-a]pyrimidine-2-carboxamido)benzoate] |
| < 200 | COc1ccc(-c2ccnc3cc(C(=O)Nc4ccc(C(=O)N5CCN(c6ccccn6)CC5)cc4)nn23)cc1OC [Compound 338, 7-(3,4-dimethoxyphenyl)-N-(4-(4-(pyridin-2-yl)piperazine-1-carbonyl)phenyl)pyrazolo[1,5-a]pyrimidine-2-carboxamide] |
| ≥ 2000 | CCOc1ccc(NC(=O)c2cc3nccc(-c4cc(OC)c(OC)cc4C)n3n2)cc1 [Compound 339, 7-(4,5-dimethoxy-2-methylphenyl)-N-(4-ethoxyphenyl)pyrazolo [1,5-a]pyrimidine-2-carboxamide] |
| ≥ 2000 | COc1ccc(-c2ccnc3cc(C(=O)N[C@H]4CC[C@H](C(=O)NC5CCN(C6CCOCC6)CC5)CC4)nn23)cc1OC [Compound 340, 7-(3,4-dimethoxyphenyl)-N-((1R,4R)-4-((1-(tetrahydro-2H-pyran-4-yl)piperidin-4-yl)carbamoyl)cyclohexyl) pyrazolo[1,5-a] pyrimidine-2-carboxamide] |
| ≥ 2000 | COc1ccc(-c2ccnc3cc(C(=O)N[C@H]4CC[C@H](C(=O)N5CCC(N6CCOCC6)CC5)CC4)nn23)cc1OC [Compound 341, 7-(3,4-dimethoxyphenyl)-N-((1R,4R)-4-(4-morpholinopiperidine-1-carbonyl)cyclohexyl) pyrazolo[1,5-a] pyrimidine-2-carboxamide] |
| 200 to 2000 | COc1ccc(-c2ccnc3cc(C(=O)N[C@H]4CC[C@H](C(=O)N5CCN(c6ccccn6)CC5)CC4)nn23)cc1OC [Compound 342, 7-(3,4-dimethoxphenyl)-N-((1R,4R)-4-(4-(pyridin-2-yl)piperazine-1-carbonyl)cyclohexyl) pyrazolo[1,5-a] pyrimidine-2-carboxamide] |
| ≥ 2000 | COc1ccc(-c2ccnc3cc(C(=O)N[C@H]4CC[C@H](C(=O)N5CCC(N6CCCCC6)CC5)CC4)nn23)cc1OC [Compound 343, N-((1R,4R)-4-([1,4′-bipiperidine]-1′-carbonyl)cyclohexyl)-7-(3,4-dimethoxyphenyl)pyrazolo [1,5-a]pyrimidine-2-carboxamide] |
| ≥ 2000 | COc1ccc(-c2ccnc3cc(C(=O)N[C@H]4CC[C@H](N5CCOCC5)CC4)nn23)cc1OC [Compound 345, 7-(3,4-dimethoxyphenyl)-N-((1R,4R)-4-morpholinocyclohexyl) pyrazolo[1,5-a]pyrimidine-2-carboxamide] |
| < 200 | COCCOCOc1ccc(NC(=O)c2cc3nccc(-c4ccc(OC)c(OC)c4)n3n2)cc1 [Compound 346, 7-(3,4-dimethoxyphenyl)-N-(4-((2-methoxyethoxy)methoxy)phenyl)pyrazolo[1,5-a]pyrimidine-2-carboxamide] |

| EC50 [nM] | Structure (SMILES) |
| --- | --- |
| ≥ 2000 | COc1ccc(-c2ccnc3cc(C(=O)N4CC(C)NC(C)C4)nn23)cc1OC (centres unmarked) [Compound 347, (7-(3,4-dimethoxyphenyl)pyrazolo[1,5-a]pyrimidin-2-yl)(3,5-dimethylpiperazin-1-yl)methanone] |
| 200 to 2000 | COc1ccc(-c2ccnc3cc(C(=O)N4CC(C)N(C(=O)c5ccccc5)C(C)C4)nn23)cc1OC (centres unmarked) [Compound 348, (4-benzoyl-3,5-dimethylpiperazin-1-yl) (7-(3,4-dimethoxyphenyl)pyrazolo [1,5-a]pyrimidine-2-yl)methanone] |
| < 200 | COc1ccc(-c2ccnc3cc(C(=O)Nc4ccc(C(=O)N5CCC(N6CCOCC6)CC5)cc4F)nn23)cc1OC [Compound 349, 7-(3,4-dimethoxyphenyl)-N-(2-fluoro-4-(4-morpholinopiperidine-1-carbonyl)phenyl)pyrazolo [1,5-a]pyrimidine-2-carboxamide] |
| < 200 | COc1ccc(-c2ccnc3cc(C(=O)N4CCN(C(=O)c5ccc(F)cc5)[C@@H](C)C4)nn23)cc1OC [Compound 350, (S)-(7-(3,4-dimethoxyphenyl)pyrazolo[1,5-a]pyrimidin-2-yl)(4-(4-fluorobenzoyl)-3-methylpiperazin-1-yl) methanone] |
| < 200 | COc1ccc(-c2ccnc3cc(C(=O)N4CCN(C(=O)c5ccc(C)cc5)[C@@H](C)C4)nn23)cc1OC [Compound 351, (S)-(7-(3,4-dimethoxyphenyl)pyrazolo[1,5-a]pyrimidin-2-yl)(3-methyl-4-(4-methylbenzoyl)piperazin-1-yl)methanone] |
| < 200 | COc1ccc(-c2ccnc3cc(C(=O)N4CCN(C(=O)c5ccco5)[C@@H](C)C4)nn23)cc1OC [Compound 353, (S)-(7-(3,4-dimethoxyphenyl)pyrazolo[1,5-a]pyrimidin-2-yl)(4-(furan-2-carbonyl)-3-methylpiperazin-1-yl)methanone] |
| < 200 | COc1ccc(-c2ccnc3cc(C(=O)N4CCN(C(=O)Nc5ccccc5)[C@@H](C)C4)nn23)cc1OC [Compound 354, (S)-4-(7-(3,4-dimethoxy-phenyl)pyrazolo[1,5-a]pyrimidine-2-carbonyl)-2-methyl-N-phenylpiperazine-1-carboxamide] |
| < 200 | COc1ccc(-c2ccnc3cc(C(=O)N4CCN(C(=O)c5cc(F)ccc5F)[C@@H](C)C4)nn23)cc1OC [Compound 356] |
| 200 to 2000 | COc1ccc(-c2ccnc3cc(C(=O)N4CCN(C(=O)c5ccncc5)[C@@H](C)C4)nn23)cc1OC [Compound 357, (S)-(7-(3,4-dimethoxyphenyl)pyrazolo[1,5-a]pyrimidin-2-yl)(4-isonicotinoyl-3-methylpiperazin-1-yl)methanone] |
| 200 to 2000 | COc1ccc(-c2ccnc3cc(C(=O)N4C[C@@H](C)N[C@@H](C)C4)nn23)cc1OC [Compound 358, (7-(3,4-dimethoxyphenyl)pyrazolo[1,5-a]pyrimidin-2-yl) ((3R,5S)-3,5-dimethylpiperazin-1-yl) methanone] |
| 200 to 2000 | COc1ccc(-c2ccnc3cc(C(=O)N4C[C@H](C)N[C@@H](C)C4)nn23)cc1OC [Compound 359, (7-(3,4-dimethoxyphenyl)pyrazolo[1,5-a]pyrimidin-2-yl) ((3S,5S)-3,5-dimethylpiperazin-1-yl)methanone] |
| 200 to 2000 | COc1ccc(-c2ccnc3cc(C(=O)N4C[C@H](C)NC[C@H]4C)nn23)cc1OC [Compound 360, (7-(3,4-dimethoxyphenyl)pyrazolo[1,5-a]pyrimidin-2-yl) ((2R,5S)-2,5-dimethylpiperazin-1-yl)methanone] |
| 200 to 2000 | COc1ccc(-c2ccnc3cc(C(=O)N4CCNC5(CC5)C4)nn23)cc1OC [Compound 361, (7-(3,4-dimethoxyphenyl)pyrazolo[1,5-a]pyrimidin-2-yl)(4,7-diazaspiro[2.5]octan-7-yl)methanone] |
| 200 to 2000 | COc1ccc(-c2ccnc3cc(C(=O)N4C[C@H](C)NC[C@@H]4C)nn23)cc1OC [Compound 362, (7-(3,4-dimethoxyphenyl)pyrazolo[1,5-a]pyrimidin-2-yl) ((2S,5S)-2,5-dimethylpiperazin-1-yl)methanone] |
| < 200 | COc1ccc(-c2ccnc3cc(C(=O)N4C[C@@H](C)N(C(=O)c5ccccc5)[C@@H](C)C4)nn23)cc1OC [Compound 363, ((3R,5S)-4-benzoyl-3,5-dimethylpiperazin-1-yl)(7-(3,4-dimethoxyphenyl)pyrazolo[1,5-a]pyrimidin-2-yl) methanone] |
| < 200 | COc1ccc(-c2ccnc3cc(C(=O)N4C[C@H](C)N(C(=O)c5ccccc5)[C@@H](C)C4)nn23)cc1OC [Compound 364, ((3S,5S)-4-benzoyl-3,5-dimethylpiperazin-1-yl) (7-(3,4-dimethoxyphenyl)pyrazolo[1,5-a]pyrimidin-2-yl)methanone] |
